Patent US20180333382A1, “PHARMACEUTICAL COMPOSITIONS COMPRISING DGLA AND USE OF SAME” (DS Biopharma Limited, priority 2017, published 2018)

Test: Phase one study part 2: multiple dose (28 days) plasma PK of free and total DGLA
Assay type: in vivo, human
Description: Multiple dose part two of the study comprised two cohorts (Cohorts five and six) of eight subjects each, who were administered multiple doses of study drug in the fasted state for 28 days. Subjects in Cohorts five and six received DS107G at 2000 or 4000 mg, respectively, or matching placebo once daily for 28 days. Cohort six was started after Cohort five's safety data were evaluated by the SMC. No interim analysis was planned. […]
In Part two of the study (Cohorts five and six), subjects were administered study drug (500-mg DS107G capsules or matching placebo capsules) once daily in the fasted state for 28 days. Subjects in Cohort five received study drug first and, if they tolerated the 2000-mg daily dose for the first 14 days, subjects in Cohort six were started on the 4000-mg daily dose for 28 days.
PK parameter was computed after correcting the dosed DGLA concentrations with baseline DGLA concentrations.

[1] = 2000 mg once daily, Day 1, 0 to 24 hours
[2] = 2000 mg once daily, Day 28, 0 to 24 hours
[3] = 2000 mg once daily, Day 28, 0 to 168 hours
[4] = 2000 mg once daily, Day 28: 0 to 24 hours
[5] = 4000 mg once daily, Day 1, 0 to 24 hours
[6] = 4000 mg once daily, Day 28, 0 to 24 hours

SMILES: CCCCC/C=C\C/C=C\C/C=C\CCCCCCC(=O)O [DS107G, Dihomo gamma linolenic acid]
- free DGLA mean accumulation ratio (AR), AUC (2000 mg): ~3.3
- free DGLA mean accumulation ratio (AR), Cmax (2000 mg): ~2.8
- AUC0-24, mean, free DGLA, baseline-corrected plasma [1]: 4.5487 µg·h/mL
- AUC0-24/Dose, mean, free DGLA, baseline-corrected plasma [1]: 2.27 h/kL
- AUC0-24/Dose, mean, total DGLA, baseline-corrected plasma [1]: 149.09 h/kL
- AUC0-inf, mean, free DGLA, baseline-corrected plasma [1]: 5.9556 µg·h/mL
- AUC0-inf/Dose, mean, free DGLA, baseline-corrected plasma [1]: 2.98 h/kL
- AUC0-inf/Dose, mean, total DGLA, baseline-corrected plasma [1]: 2080.61 h/kL
- CL/F, mean, free DGLA, baseline-corrected plasma [1]: 0.5448 kL/h
- Cmax, mean, free DGLA, baseline-corrected plasma [1]: 0.8505 µg/mL
- Cmax/Dose, mean, free DGLA, baseline-corrected plasma [1]: 0.425 kL⁻¹
- Cmax/Dose, mean, total DGLA, baseline-corrected plasma [1]: 9.050 kL⁻¹
- λz, mean, free DGLA, baseline-corrected plasma [1]: 0.2133 h⁻¹
- λz, mean, total DGLA, baseline-corrected plasma [1]: 0.221 h⁻¹
- AUC0-24, mean, free DGLA, baseline-corrected plasma [2]: 9.2481 µg·h/mL
- AUC0-24/Dose, mean, free DGLA, baseline-corrected plasma [2]: 4.62 h/kL
- AUC0-24/Dose, mean, total DGLA, baseline-corrected plasma [2]: 675.69 h/kL
- AUC0-inf, mean, free DGLA, baseline-corrected plasma [2]: 10.389 µg·h/mL
- AUC0-inf/Dose, mean, free DGLA, baseline-corrected plasma [2]: 5.19 h/kL
- AUC0-inf/Dose, mean, total DGLA, baseline-corrected plasma [2]: 2579.58 h/kL
- CL/F, mean, free DGLA, baseline-corrected plasma [2]: 0.2002 kL/h
- Cmax, mean, free DGLA, baseline-corrected plasma [2]: 1.9993 µg/mL
- Cmax/Dose, mean, free DGLA, baseline-corrected plasma [2]: 1.000 kL⁻¹
- Cmax/Dose, mean, total DGLA, baseline-corrected plasma [2]: 37.792 kL⁻¹
- λz, mean, free DGLA, baseline-corrected plasma [2]: 0.1282 h⁻¹
- λz, mean, total DGLA, baseline-corrected plasma [2]: 0.0199 h⁻¹
- AUC0-24, mean, free DGLA, baseline-corrected plasma [3]: 9.2481 µg·h/mL
- AUC0-24/Dose, mean, free DGLA, baseline-corrected plasma [3]: 4.62 h/kL
- AUC0-24/Dose, mean, total DGLA, baseline-corrected plasma [3]: 675.69 h/kL
- AUC0-inf, mean, free DGLA, baseline-corrected plasma [3]: 43.0248 µg·h/mL
- AUC0-inf/Dose, mean, free DGLA, baseline-corrected plasma [3]: 21.51 h/kL
- AUC0-inf/Dose, mean, total DGLA, baseline-corrected plasma [3]: 2513.91 h/kL
- CL/F, mean, free DGLA, baseline-corrected plasma [3]: 0.0949 kL/h
- Cmax, mean, free DGLA, baseline-corrected plasma [3]: 1.9993 µg/mL
- Cmax/Dose, mean, free DGLA, baseline-corrected plasma [3]: 1.000 kL⁻¹
- Cmax/Dose, mean, total DGLA, baseline-corrected plasma [3]: 37.792 kL⁻¹
- λz, mean, free DGLA, baseline-corrected plasma [3]: 0.0250 h⁻¹
- λz, mean, total DGLA, baseline-corrected plasma [3]: 0.0169 h⁻¹
- % PTF (peak trough fluctuation), mean, free DGLA, steady-state baseline-corrected plasma [4]: 492.54%
- % PTF (peak trough fluctuation), mean, total DGLA, steady-state baseline-corrected plasma [4]: 62.50%
- AR(AUC) accumulation ratio, mean, free DGLA, steady-state baseline-corrected plasma [4]: 3.340
- AR(AUC) accumulation ratio, mean, total DGLA, steady-state baseline-corrected plasma [4]: 7.991
- AR(Cmax) accumulation ratio, mean, free DGLA, steady-state baseline-corrected plasma [4]: 2.796
- AR(Cmax) accumulation ratio, mean, total DGLA, steady-state baseline-corrected plasma [4]: 5.156
- CLss/F, mean, free DGLA, steady-state baseline-corrected plasma [4]: 0.2295 kL/h
- CLss/F, mean, total DGLA, steady-state baseline-corrected plasma [4]: 0.0016 kL/h
- Cavg, mean, free DGLA, steady-state baseline-corrected plasma [4]: 0.3853 µg/mL
- Cavg, mean, total DGLA, steady-state baseline-corrected plasma [4]: 56.3072 µg/mL
- Cmin, mean, free DGLA, steady-state baseline-corrected plasma [4]: 0.1008 µg/mL
- Cmin, mean, total DGLA, steady-state baseline-corrected plasma [4]: 37.9333 µg/mL
- Vzss/F, mean, free DGLA, steady-state baseline-corrected plasma [4]: 5.3096 kL
- Vzss/F, mean, total DGLA, steady-state baseline-corrected plasma [4]: 0.0980 kL
- tmin, median, free DGLA, steady-state baseline-corrected plasma [4]: 8.00 h
- tmin, median, total DGLA, steady-state baseline-corrected plasma [4]: 1.50 h
- free DGLA mean accumulation ratio (AR), AUC (4000 mg): ~1.6
- free DGLA mean accumulation ratio (AR), Cmax (4000 mg): ~1.4
- AUC0-24, mean, free DGLA, baseline-corrected plasma [5]: 11.4414 µg·h/mL
- AUC0-24/Dose, mean, free DGLA, baseline-corrected plasma [5]: 2.86 h/kL
- AUC0-24/Dose, mean, total DGLA, baseline-corrected plasma [5]: 114.05 h/kL
- AUC0-inf, mean, free DGLA, baseline-corrected plasma [5]: 13.9003 µg·h/mL
- AUC0-inf/Dose, mean, free DGLA, baseline-corrected plasma [5]: 3.48 h/kL
- CL/F, mean, free DGLA, baseline-corrected plasma [5]: 0.3325 kL/h
- Cmax, mean, free DGLA, baseline-corrected plasma [5]: 2.6415 µg/mL
- Cmax/Dose, mean, free DGLA, baseline-corrected plasma [5]: 0.660 kL⁻¹
- Cmax/Dose, mean, total DGLA, baseline-corrected plasma [5]: 6.967 kL⁻¹
- λz, mean, free DGLA, baseline-corrected plasma [5]: 0.1504 h⁻¹
- AUC0-24, mean, free DGLA, baseline-corrected plasma [6]: 16.1552 µg·h/mL
- AUC0-24/Dose, mean, free DGLA, baseline-corrected plasma [6]: 4.04 h/kL
